PubChem BioAssay (NCI)
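Grown in 96-well plates, cells were treated for 48 hours with each compound at five concentrations. Insufficient inhibition: endpoint recorded as highest concentration tested. TGI marks complete inhibition of growth.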

How the values were obtained:
Experiment in all cases: inhibition of tumour cell growth, NCI panel, 48 h
[1] = system: M14 melanoma
[2] = system: SK-MEL-28 melanoma
[3] = system: SNB-19 CNS
[4] = system: SF-539 CNS
[5] = system: DLD-1 colon
[6] = system: ACHN renal
[7] = system: U251 CNS
[8] = system: HOP-62 NSCLC
[9] = system: SF-295 CNS
[10] = system: A498 renal
[11] = system: EKVX NSCLC
[12] = system: HCT-15 colon
[13] = system: RPMI-8226 leukemia
[14] = system: CCRF-CEM leukemia
[15] = system: K-562 leukemia
[16] = system: NCI-H460 lung
[17] = system: M19-MEL melanoma
[18] = system: RXF 393 renal
[19] = system: NCI-H23 lung
[20] = system: TK-10 renal
[21] = system: HOP-92 NSCLC
[22] = system: SK-MEL-2 melanoma
[23] = system: OVCAR-8 ovarian
[24] = system: SW-620 colon
[25] = system: OVCAR-4 ovarian
[26] = system: SF-268 CNS
[27] = system: SK-OV-3 ovarian
[28] = system: XF 498 CNS
[29] = system: SNB-78 CNS
[30] = system: 786-0 renal
[31] = system: LOX IMVI melanoma
[32] = system: UACC-257 melanoma
[33] = system: UACC-62 melanoma
[34] = system: KM20L2 colon
[35] = system: MOLT-4 leukemia
[36] = system: SR leukemia
[37] = system: COLO 205 colon
[38] = system: A549 NSCLC
[39] = system: OVCAR-3 ovarian
[40] = system: SK-MEL-5 melanoma
[41] = system: CAKI-1 renal
[42] = system: IGROV1 ovarian
[43] = system: HL-60(TB) leukemia
[44] = system: UO-31 renal
[45] = system: KM12 colon
[46] = system: SN12C renal
[47] = system: RXF-631 renal
[48] = system: NCI-H522 lung
[49] = system: DMS 273 small cell lung
[50] = system: HCT-116 colon
[51] = system: SNB-75 CNS
[52] = system: DMS 114 small cell lung
[53] = system: LXFL 529 NSCLC
[54] = system: MALME-3M melanoma
[55] = system: HOP-18 NSCLC
[56] = system: NCI-H226 lung
[57] = system: HCC-2998 colon
[58] = system: OVCAR-5 ovarian
[59] = system: HT29 colon

Compound: Cc1ccc(SC(CCC(Sc2ccc(C)cc2)Sc2ccc(C)cc2)Sc2ccc(C)cc2)cc1
- TGI [1]: > 100 µM
- TGI [2]: > 100 µM
- TGI [3]: > 100 µM
- TGI [4]: > 100 µM
- TGI [5]: > 100 µM
- TGI [6]: > 100 µM
- TGI [7]: > 100 µM
- TGI [8]: > 100 µM
- TGI [9]: > 100 µM
- TGI [10]: > 100 µM
- TGI [11]: > 100 µM
- TGI [12]: > 100 µM
- TGI [13]: > 100 µM
- TGI [14]: > 100 µM
- TGI [15]: > 100 µM
- TGI [16]: > 100 µM
- TGI [17]: > 100 µM
- TGI [18]: > 100 µM
- TGI [19]: > 100 µM
- TGI [20]: > 100 µM
- TGI [21]: > 100 µM
- TGI [22]: > 100 µM
- TGI [23]: > 100 µM
- TGI [24]: > 100 µM
- TGI [25]: > 100 µM
- TGI [26]: > 100 µM
- TGI [27]: > 100 µM
- TGI [28]: > 100 µM
- TGI [29]: > 100 µM
- TGI [30]: > 100 µM
- TGI [31]: > 100 µM
- TGI [32]: > 100 µM
- TGI [33]: > 100 µM
- TGI [34]: > 100 µM
- TGI [35]: > 100 µM
- TGI [36]: > 100 µM
- TGI [37]: > 100 µM
- TGI [38]: > 100 µM
- TGI [39]: > 100 µM
- TGI [40]: > 100 µM
- TGI [41]: > 100 µM
- TGI [42]: > 100 µM
- TGI [43]: > 100 µM
- TGI [44]: > 100 µM
- TGI [45]: > 100 µM
- TGI [46]: > 100 µM
- TGI [47]: > 100 µM
- TGI [48]: > 100 µM
- TGI [49]: > 100 µM
- TGI [50]: > 100 µM
- TGI [51]: > 100 µM
- TGI [52]: > 100 µM

Compound: CCCCCC(=O)C(C)C1=Nc2nnc(CCCCCCCc3nnc4n3C(=O)C(C(C)C(=O)CCCCC)=N4)n2C1=O (stereo not drawn)
- TGI [1]: > 100 µM
- TGI [2]: > 100 µM
- TGI [53]: > 100 µM
- TGI [3]: > 100 µM
- TGI [54]: > 100 µM
- TGI [4]: > 100 µM
- TGI [5]: > 100 µM
- TGI [55]: > 100 µM
- TGI [6]: > 100 µM
- TGI [7]: > 100 µM
- TGI [8]: > 100 µM
- TGI [9]: > 100 µM
- TGI [11]: > 100 µM
- TGI [12]: > 100 µM
- TGI [13]: > 100 µM
- TGI [14]: > 100 µM
- TGI [56]: > 100 µM
- TGI [15]: > 100 µM
- TGI [57]: > 100 µM
- TGI [16]: > 100 µM
- TGI [17]: > 100 µM
- TGI [18]: > 100 µM
- TGI [19]: > 100 µM
- TGI [20]: > 100 µM
- TGI [23]: > 100 µM
- TGI [24]: > 100 µM
- TGI [25]: > 100 µM
- TGI [26]: > 100 µM
- TGI [27]: > 100 µM
- TGI [28]: > 100 µM
- TGI [30]: > 100 µM
- TGI [31]: > 100 µM
- TGI [58]: > 100 µM
- TGI [32]: > 100 µM
- TGI [33]: > 100 µM
- TGI [34]: > 100 µM
- TGI [35]: > 100 µM
- TGI [36]: > 100 µM
- TGI [37]: > 100 µM
- TGI [38]: > 100 µM
- TGI [39]: > 100 µM
- TGI [40]: > 100 µM
- TGI [41]: > 100 µM
- TGI [42]: > 100 µM
- TGI [43]: > 100 µM
- TGI [44]: > 100 µM
- TGI [45]: > 100 µM
- TGI [46]: > 100 µM
- TGI [59]: > 100 µM
- TGI [47]: > 100 µM
- TGI [48]: > 100 µM
- TGI [50]: > 100 µM
- TGI [51]: > 100 µM
- TGI [52]: > 100 µM

Compound: COc1ccc(Nc2nc3ccc(C(F)(F)F)cc3nc2-c2ccccc2)cc1OC
- TGI [1]: > 100 µM
- TGI [2]: > 100 µM
- TGI [53]: > 100 µM
- TGI [54]: > 100 µM
- TGI [4]: > 100 µM
- TGI [5]: > 100 µM
- TGI [6]: > 100 µM
- TGI [7]: > 100 µM
- TGI [8]: > 100 µM
- TGI [9]: 44.9 µM
- TGI [10]: > 100 µM
- TGI [11]: 80.3 µM
- TGI [12]: > 100 µM
- TGI [14]: > 100 µM
- TGI [56]: > 100 µM
- TGI [15]: > 100 µM
- TGI [57]: 41.3 µM
- TGI [16]: 37.1 µM
- TGI [18]: 83.6 µM
- TGI [19]: > 100 µM
- TGI [21]: 36.9 µM
- TGI [22]: > 100 µM
- TGI [23]: > 100 µM
- TGI [24]: > 100 µM
- TGI [25]: > 100 µM
- TGI [26]: > 100 µM
- TGI [27]: > 100 µM
- TGI [28]: 85 µM
- TGI [30]: 72.7 µM
- TGI [31]: 31.6 µM
- TGI [58]: > 100 µM
- TGI [32]: > 100 µM
- TGI [33]: > 100 µM
- TGI [35]: > 100 µM
- TGI [36]: > 100 µM
- TGI [37]: 91.2 µM
- TGI [38]: > 100 µM
- TGI [39]: > 100 µM
- TGI [40]: > 100 µM
- TGI [41]: 86.1 µM
- TGI [42]: > 100 µM
- TGI [43]: > 100 µM
- TGI [44]: 72.9 µM
- TGI [45]: > 100 µM
- TGI [46]: > 100 µM
- TGI [59]: 22.6 µM
- TGI [47]: > 100 µM
- TGI [48]: 75.3 µM
- TGI [49]: > 100 µM
- TGI [50]: > 100 µM
- TGI [51]: > 100 µM
- TGI [52]: > 100 µM
